Measured values: the NIST ThermoML archive (doi:10.1021/acs.jced.7b00429)

Tests used:
[1] = 100 kPa, Liquid; for viscosity: Falling or rolling sphere viscometry; for speed of sound: Frequency=3 MHz, Single path-length method; for mass density: Vibrating tube method
[2] = xn = mol fraction of the nth substance listed; conditions: 100 kPa, Liquid, x2 = 0; for viscosity: Falling or rolling sphere viscometry; for speed of sound: Frequency=3 MHz, Single path-length method; for mass density: Vibrating tube method

CCn1cc[n+](C)c1.O=S(=O)([O-])C(F)(F)F [1-ethyl-3-methylimidazolium trifluoromethanesulfonate]
[1]
Conditions	mass density [kg/m3]	speed of sound [m/s]	viscosity [mPa·s]
298.15 K	1379.91	1436	45.67
303.15 K	1375.71	1425.4	38.31
308.15 K	1371.51	1414.3	32.38
313.15 K	1367.36	1403	27.68
318.15 K	1363.21	1392.7	23.86
323.15 K	1359.07	1381.7	20.75

CC#N [acetonitrile]
[1]
Conditions	mass density [kg/m3]	speed of sound [m/s]	viscosity [mPa·s]
298.15 K	776.71	1278.5	0.34
303.15 K	771.29	1258.4	0.32
308.15 K	765.83	1238.2	0.31
313.15 K	760.34	1218	0.3
318.15 K	754.82	1197.9	0.29
323.15 K	749.25	1177.8	0.28

CC#N [acetonitrile] + CCn1cc[n+](C)c1.O=S(=O)([O-])C(F)(F)F
[2]
Conditions	mass density [kg/m3]	speed of sound [m/s]	viscosity [mPa·s]
298.15 K	776.71	1278.5	0.34
303.15 K	771.29	1258.4	0.32
308.15 K	765.83	1238.2	0.31
313.15 K	760.34	1218	0.3
318.15 K	754.82	1197.9	0.29
323.15 K	749.25	1177.8	0.28
